Data as given in publication PMC10052035, “Virtual Screening, Structural Analysis, and Formation Thermodynamics of Carbamazepine Cocrystals” (Pharmaceutics, 2023).
Values after ≈ are worked out from the molar mass of the structure shown. Read-outs that look alike come from different tables or passages of the source.

Columns and labels:
[1] = cited from earlier work
[2] = Solubility of cocrystals and their constituents in organic solvents (shake-flask, HPLC); details: for solubility at 48 h: organic solvent or mixture, thermodynamic from solid; for Cp∙10^2, solubility of pure component / Ccc,4AcAmBA∙10^2, coformer concentration in equilibrium with cocrystal / Ccc,CBZ∙10^2, CBZ concentration in equilibrium with cocrystal: value is C∙10^2
Description: For the [CBZ + 3AcAmBA] (1:1) cocrystal, methanol was used. For [CBZ + 4AcAmBA] (1:1), all the experiments were performed in acetonitrile. An excess of the solid was placed in an Eppendorf tube, and 2 mL of solvent was added. The resulting suspension was shaken in a ThermoMixer C (Eppendorf, Hamburg, Germany) at 800 rpm for 48 h at the specified temperature. Subsequently, the saturated solution was separated using a 0.22 μm PTEF filter, diluted, and analyzed using HPLC. The solid phases after the experiment were collected and characterized by PXRD. Each experiment was repeated three times.
The HPLC was performed on an LC-20 AD Shimadzu Prominence model (Shimadzu, Kyoto, Japan) equipped with a PDA detector and a Luna C-18 column (150 mm × 4.6 mm i.d., 5 μm particle size, and 100 Å pore size). The column temperature was set to 40 °C. To achieve the proper separation of the cocrystal components, different ratios of the mobile phase, consisting of acetonitrile and a 0.1% aqueous solution of trifluoroacetic acid (35:65 v/v), were used. The flow rate was 1.0 mL·min^−1, and the injection volume was 20 μL. The UV detection of carbamazepine, 2-acetamidobenzoic acid, 3-acetamidobenzoic acid, and 4-acetamidobenzoic acid was carried out at the wavelengths of 285 nm, 249 nm, 220 nm, and 266 nm, respectively.

[3] = format: physicochemical; details: for Scc, solubility of the cocrystal: pH 2; for [CF]eu, eutectic concentration of coformer / [CBZ]eu, eutectic concentration of CBZ / Keu, eutectic constant: pH 2.0, 310.2 K; for [CF]eu, eutectic concentration of coformer: eutectic point; for [CBZ]eu, eutectic concentration of CBZ: eutectic point (drug and cocrystal in equilibrium with solution); for Keu, eutectic constant: Keu = [CF]eu/[CBZ]eu
Description: The saturation shake-flask method was used to measure the aqueous solubility of the CBZ cocrystals in a pH 2.0 buffer solution at the eutectic point, where drug and cocrystal are in equilibrium with the solution. The eutectic point between the cocrystal and the drug was reached by suspending 80 mg of the cocrystal and 30 mg of CBZ in 2 mL of the buffer solution. The obtained suspension was stirred continuously for 72 h at 37.0 ± 0.1 °C. After equilibration, the final pH of the solution was measured. The suspension was diluted with the mobile phase after being filtered through a […] PTEF filter. Concentrations of compounds were analyzed by HPLC. The solid phases after the experiment were characterized by PXRD.
The column temperature was set to 40 °C.

[4] = Preliminary solution stability (congruent/incongruent dissolution) in organic solvents, PXRD of residual phases; format: physicochemical
Source text: The most convenient way to determine the solubility product of a cocrystal is to ensure that the solution and the cocrystal are at thermodynamic equilibrium, i.e., that the cocrystal is congruently soluble in the chosen solvent. In this work, acetonitrile was primarily utilized as a medium to carry out solubility experiments. […] (1:1) and [CBZ + 3AcAmBA] […] In the case of [CBZ + 3AcAmBA] (1:1), incongruent solubility of the cocrystal was expected given the high solubility ratio of the components in acetonitrile (Table S6). This is likely to result in an asymmetric ternary phase diagram with a narrow stability region for the [CBZ + 3AcAmBA] (1:1) cocrystal. […] It is reasonable to assume that the poor solution stability of the [CBZ + 2AcAmBA] (1:1) cocrystal is not due to the large solubility difference between CBZ and 2AcAmBA but rather because of the low intrinsic thermodynamic stability of the binary solid form caused by the lack of energy gain associated with cocrystal formation, which leads to a higher solubility in all solvents considered. […] (1:1) cocrystal compared to the parent pure components (~40 °C, Figure S2), implicitly corroborate this supposition. Since no suitable solvent for solubility studies of [CBZ + 2AcAmBA] (1:1) could be found, this system was not further explored. The [CBZ + 3AcAmBA]

[5] = Cocrystal formation thermodynamics from solubility data (Kf, ΔformG, ΔformH, ΔformS); format: physicochemical; details: for ΔformH: van't Hoff, 293.15-313.15 K
Source text: It is known that the relative stability of a cocrystal with respect to a physical mixture of the parent constituents at a given temperature can be quantitatively expressed in terms of the free-energy change, ΔformG, of the cocrystallization reaction. Analyzing the temperature dependence of the Gibbs formation energy can provide further information on the enthalpy and entropy contributions to the driving force of the process as well as help to estimate the thermodynamic transition temperature, which determines the stability domains of a cocrystal and its individual constituents. The experimental assessment of ΔformG is based on solubility data for the starting molecules and the corresponding cocrystal in the same solvent at a predetermined temperature using the equation below:(3) ΔformG=−RTlnap,Ax×ap,By/acc,Ax×acc,By=−RTlnap,Ax×ap,By/Ksp=−RTlnKf, where ap,A and ap,B represent the activities of pure A and B compounds in a saturated solution; acc,A and acc,B are the activities of the cocrystal components in a solution, in equilibrium with pure cocrystal; Ksp is the solubility product of a cocrystal; T is the temperature; x and y are the stoichiometric coefficients; and Kf is an equilibrium constant at the experimental temperature.
Using the van’t Hoff expression, the enthalpy of the cocrystallization process, ΔformH, may be estimated by evaluating the Kf values at various temperatures (assuming that ΔformH is a constant within the selected temperature range):(4) dlnKf/d(1/T)=−ΔformH/R
The entropy of cocrystal formation, ΔformS, can be estimated from (5) ΔformS=ΔformH−ΔformG/T
Even though the activities in Equation (3) are usually approximated by the corresponding molar concentration while neglecting the activity coefficients, a more valid approximation implies that the activity coefficients for the two solute species are constant along the cocrystal solubility line and equal to the activity coefficients of the pure components in the saturated solutions in the same solvent and temperature. […] Table S5 contains the solubility values of CBZ, coformers, and the CBZ cocrystals with emodin, paeonol, nicotinamide, and glutaric acid in various organic solvents.

[6] = 298.2K, listed as [CBZ+4AcAmBA] (1:1)

## NC(=O)N1c2ccccc2C=Cc2ccccc21 [CBZ, carbamazepine]
[1]; 2-propanol, ref [6]
  log(S0), intrinsic solubility: -1.36 mol⋅L-1
[1]; 2-propanol, ref [10]
  log(S0), intrinsic solubility: -1.3 mol⋅L-1
[1]; Acetone, ref [6]
  log(S0), intrinsic solubility: -1.27 mol⋅L-1
[1]; Ethanol, ref [6]
  log(S0), intrinsic solubility: -0.97 mol⋅L-1
[1]; Ethanol, ref [10]
  log(S0), intrinsic solubility: -0.85 mol⋅L-1
[1]; Ethyl acetate, ref [6]
  log(S0), intrinsic solubility: -1.32 mol⋅L-1
[1]; Ethyl acetate, ref [10]
  log(S0), intrinsic solubility: -1.31 mol⋅L-1
[1]; Methanol, ref [6]
  log(S0), intrinsic solubility: -0.49 mol⋅L-1
[2]; acetonitrile, 20 °C
  solubility at 48 h: 142 ± 3 mM (≈ 33.6 mg/mL)
[2]; acetonitrile, 25 °C
  solubility at 48 h: 162 ± 4 mM (≈ 38.3 mg/mL)
[2]; acetonitrile, 30 °C
  solubility at 48 h: 191 ± 4 mM (≈ 45.1 mg/mL)
[2]; acetonitrile, 35 °C
  solubility at 48 h: 222 ± 3 mM (≈ 52.5 mg/mL)
[2]; acetonitrile, 40 °C
  solubility at 48 h: 250 ± 4 mM (≈ 59.1 mg/mL)
[2]; acetonitrile, 293.15 K
  Cp∙10^2, solubility of pure component: 14.2±0.3 mol/l
[2]; methanol, 20 °C
  solubility at 48 h: 220 ± 2 mM (≈ 52 mg/mL)
[2]; methanol, 25 °C
  solubility at 48 h: 248 ± 2 mM (≈ 58.6 mg/mL)
[2]; methanol, 30 °C
  solubility at 48 h: 285 ± 2 mM (≈ 67.3 mg/mL)
[2]; methanol, 35 °C
  solubility at 48 h: 323 ± 3 mM (≈ 76.3 mg/mL)
[2]; methanol, 40 °C
  solubility at 48 h: 356 ± 1 mM (≈ 84.1 mg/mL)
[2]; methanol, 293.15 K
  Cp∙10^2, solubility of pure component: 22.0±0.2 mol/l

## CC(=O)Nc1ccccc1C(=O)O.NC(=O)N1c2ccccc2C=Cc2ccccc21 [[CBZ + 2AcAmBA] (1:1)]
[3]
  Scc, solubility of the cocrystal: (2.8 ± 0.1)·10^−3 Mol·L^−1
  [CF]eu, eutectic concentration of coformer: (7.5 ± 0.1)·10^−3 Mol·L^−1
  [CBZ]eu, eutectic concentration of CBZ: (1.10 ± 0.06)·10^−3 Mol·L^−1
  Keu, eutectic constant: 6.8 ± 0.4
[4]; acetonitrile
  dissolution behaviour / solution stability: dissolved incongruently
[4]; several other tested solvents, including methanol, ethanol, and acetone
  dissolution behaviour / solution stability: incongruent behavior

## CC(=O)Nc1ccc(C(=O)O)cc1.NC(=O)N1c2ccccc2C=Cc2ccccc21 [[CBZ + 4AcAmBA] (1:1)]
[5]; 298.2K
  T·ΔformS: -0.574 ± 0.14 kcal/mol
  lnKf: 2.86 ± 0.03
  ΔformG: -1.69 ± 0.019 kcal/mol
  ΔformH: -2.27 ± 0.14 kcal/mol
[5]; [6]
  T·ΔformS: -0.574 ± 0.14 kcal/mol
  ΔformG: -1.69 ± 0.019 kcal/mol
  ΔformH: -2.27 ± 0.14 kcal/mol
[5]; acetonitrile, 293.15 K
  lnKf: 2.93±0.04
  ∆formG: -1.7 ± 0.022 kcal/mol
[5]; acetonitrile, 298.15 K
  lnKf: 2.86±0.03
  ∆formG: -1.69 ± 0.019 kcal/mol
[5]; acetonitrile, 303.15 K
  lnKf: 2.82±0.03
  ∆formG: -1.7 ± 0.017 kcal/mol
[5]; acetonitrile, 308.15 K
  lnKf: 2.75±0.02
  ∆formG: -1.68 ± 0.012 kcal/mol
[5]; acetonitrile, 313.15 K
  lnKf: 2.67±0.03
  ∆formG: -1.66 ± 0.019 kcal/mol
[3]
  Scc, solubility of the cocrystal: (0.80 ± 0.02)·10^−3 Mol·L^−1
  [CF]eu, eutectic concentration of coformer: (6.4 ± 0.2)·10^−4 Mol·L^−1
  [CBZ]eu, eutectic concentration of CBZ: (1.00 ± 0.05)·10^−3 Mol·L^−1
  Keu, eutectic constant: 0.64 ± 0.04
[2]; acetonitrile, 293.15 K
  Ccc,4AcAmBA∙10^2, coformer concentration in equilibrium with cocrystal: 0.880±0.016 mol/l
  Ccc,CBZ∙10^2, CBZ concentration in equilibrium with cocrystal: 0.875±0.014 mol/l
[2]; acetonitrile, 298.15 K
  Ccc,4AcAmBA∙10^2, coformer concentration in equilibrium with cocrystal: 1.046±0.010 mol/l
  Ccc,CBZ∙10^2, CBZ concentration in equilibrium with cocrystal: 1.013±0.015 mol/l
[2]; acetonitrile, 303.15 K
  Ccc,4AcAmBA∙10^2, coformer concentration in equilibrium with cocrystal: 1.222±0.017 mol/l
  Ccc,CBZ∙10^2, CBZ concentration in equilibrium with cocrystal: 1.198±0.007 mol/l
[2]; acetonitrile, 308.15 K
  Ccc,4AcAmBA∙10^2, coformer concentration in equilibrium with cocrystal: 1.472±0.008 mol/l
  Ccc,CBZ∙10^2, CBZ concentration in equilibrium with cocrystal: 1.428±0.009 mol/l
[2]; acetonitrile, 313.15 K
  Ccc,4AcAmBA∙10^2, coformer concentration in equilibrium with cocrystal: 1.707±0.030 mol/l
  Ccc,CBZ∙10^2, CBZ concentration in equilibrium with cocrystal: 1.684±0.022 mol/l

## NC(=O)N1c2ccccc2C=Cc2ccccc21.O [carbamazepine hydrate, reference compound]
[3]; acidic conditions (pH 2.0), 310.2 K
  solubility: (8.30 ± 0.02)·10^−4 mol·l^−1

## COc1ccc(C(C)=O)c(O)c1 [Paeonol]
[1]; 2-propanol, ref [6]
  log(S0), intrinsic solubility: -0.12 mol⋅L-1
[1]; Ethanol, ref [6]
  log(S0), intrinsic solubility: 0.08 mol⋅L-1
[1]; Methanol, ref [6]
  log(S0), intrinsic solubility: 0.22 mol⋅L-1

## NC(=O)c1cccnc1 [Nicotinamide]
[1]; 2-propanol, ref [10]
  log(S0), intrinsic solubility: -0.2 mol⋅L-1
[1]; Ethanol, ref [10]
  log(S0), intrinsic solubility: 0.04 mol⋅L-1
[1]; Ethyl acetate, ref [10]
  log(S0), intrinsic solubility: -0.96 mol⋅L-1
